Reference: the supplement of paper PMC13380429

Experiments:
Details in all cases: 72 h
U2OS [1] = assay: relative viability EC50 (midpoint between 100% and the lowest measured viability); higher = less toxic
HepG2 [2] = assay: as above
Vero E6 [3] = assay: as above
U2OS [4] = assay: drug sensitivity score (DSS) for viability; higher = more toxic; extreme values may be limits of the assay
HepG2 [5] = assay: as above
Vero E6 [6] = assay: as above
U2OS [7] = assay: cell viability relative to DMSO; higher = less toxic
HepG2 [8] = assay: as above
Vero E6 [9] = assay: as above
Calu-3 [10] = assay: relative viability EC50 (midpoint between 100% and the lowest measured viability); higher = less toxic
Calu-3 [11] = assay: drug sensitivity score (DSS) for viability; higher = more toxic; extreme values may be limits of the assay
Calu-3 [12] = assay: cell viability relative to DMSO; higher = less toxic
Caco-2 [13] = assay: drug sensitivity score (DSS) for viability; higher = more toxic; extreme values may be limits of the assay
Caco-2 [14] = assay: cell viability relative to DMSO; higher = less toxic

Structure (SMILES) | relative viability EC50 (U2OS [1]) [µM] | relative viability EC50 (HepG2 [2]) [µM] | relative viability EC50 (Vero E6 [3]) [µM] | drug sensitivity score (U2OS [4]) | drug sensitivity score (HepG2 [5]) | drug sensitivity score (Vero E6 [6]) | cell viability (U2OS [7]; 1 nM) [%] | cell viability (U2OS [7]; 10 nM) [%] | cell viability (U2OS [7]; 100 nM) [%] | cell viability (U2OS [7]; 1000 nM) [%] | cell viability (U2OS [7]; 10000 nM) [%] | cell viability (HepG2 [8]; 1 nM) [%] | cell viability (HepG2 [8]; 10 nM) [%] | cell viability (HepG2 [8]; 100 nM) [%] | cell viability (HepG2 [8]; 1000 nM) [%] | cell viability (HepG2 [8]; 10000 nM) [%] | cell viability (Vero E6 [9]; 1 nM) [%] | cell viability (Vero E6 [9]; 10 nM) [%] | cell viability (Vero E6 [9]; 100 nM) [%] | cell viability (Vero E6 [9]; 1000 nM) [%] | cell viability (Vero E6 [9]; 10000 nM) [%] | relative viability EC50 (Calu-3 [10]) [µM] | drug sensitivity score (Calu-3 [11]) | cell viability (Calu-3 [12]; 1 nM) [%] | cell viability (Calu-3 [12]; 10 nM) [%] | cell viability (Calu-3 [12]; 100 nM) [%] | cell viability (Calu-3 [12]; 1000 nM) [%] | cell viability (Calu-3 [12]; 10000 nM) [%] | drug sensitivity score (Caco-2 [13]) | cell viability (Caco-2 [14]; 1 nM) [%] | cell viability (Caco-2 [14]; 10 nM) [%] | cell viability (Caco-2 [14]; 100 nM) [%] | cell viability (Caco-2 [14]; 1000 nM) [%] | cell viability (Caco-2 [14]; 10000 nM) [%]
Cc1cccc(C(=O)O)c1O [hydroxytoluic-acid] | > 10 | > 10 | > 10 | 0 | 0 | 0 | 96.8 | 99.3 | 102 | 108 | 104 | 90.6 | 93.6 | 87.1 | 88.5 | 104 | 108 | 104 | 104 | 105 | 99 | – | – | – | – | – | – | – | – | – | – | – | – | –
COc1ccc(CNC(=O)c2cc(-c3cncc(C)c3)ncc2-c2nccs2)nc1OC [MK-3697] | > 10 | > 10 | > 10 | 0 | 0 | 0 | 97.4 | 103 | 94.7 | 99.3 | 99.1 | 99.8 | 91.2 | 94.9 | 98.5 | 105 | 103 | 104 | 109 | 111 | 92.7 | > 10 | 0 | 89 | 101 | 83.4 | 92.5 | 99.9 | – | – | – | – | – | –
CCNCCS(=O)(=O)NC[C@@]1(c2ccccc2)SC(NC(=O)C(C)(C)C)=NN1C(=O)C(C)(C)C [litronesib] | 0.0488 | 0.0119 | 0.146 | 15.5 | 23.3 | 13.9 | 104 | 96 | 58 | 49.7 | 44.8 | 89.4 | 72.9 | 35.9 | 34.7 | 33.6 | 97 | 107 | 82.9 | 38.8 | 41.9 | > 10 | 2.8 | 95.1 | 91.9 | 87 | 84.3 | 81.2 | 12.7 | 98.1 | 91 | 62.9 | 67.9 | 62.2
O=C(O)[C@]1(Cc2cccc(Nc3nccs3)n2)CC[C@@H](Oc2cccc(Cl)c2F)CC1 [MK-5108] | – | 0.787 | > 10 | 1.8 | 7.8 | 1.3 | 97.9 | 100 | 94.5 | 95.1 | 73.3 | 111 | 106 | 99.3 | 62.2 | 40.2 | 97.3 | 100 | 100 | 94.6 | 79.5 | > 10 | 2.4 | 98.6 | 90.3 | 89.1 | 88 | 76.8 | 4.6 | 95.6 | 100 | 90.2 | 76.2 | 70.7
